Source: US20240158446A1, “CYCLIC COMPOUND HAVING SELECTIVE INHIBITORY ACTION ON KRAS OVER HRAS AND NRAS” (CHUGAI SEIYAKU KABUSHIKI KAISHA, priority 2021, published 2024)
Where a SMILES comes first, the peptide text is derived from it. Bridges are numbered along the chain shown (N, C = ends). [ ]: non-standard residue; d: D form. The star is where a group is joined. hPhe(3-Cl-4-CF3) = N[C@@H](CCc1ccc(C(F)(F)F)c(Cl)c1)C(=O)O; NEtPhe(4-CF3) = CCN[C@@H](Cc1ccc(C(F)(F)F)cc1)C(=O)O; NEtPhe(4-Me) = CCN[C@@H](Cc1ccc(C)cc1)C(=O)O; NMePhe(4-Me) = CN[C@@H](Cc1ccc(C)cc1)C(=O)O; NMeGly(cPent) = CN[C@H](C(=O)O)C1CCCC1; Hyp = O=C(O)[C@@H]1C[C@@H](O)CN1; NMeF = CN[C@@H](Cc1ccccc1)C(=O)O; NMeD = CN[C@@H](CC(=O)O)C(=O)O; NMeL = CN[C@@H](CC(C)C)C(=O)O; NMeV = CN[C@H](C(=O)O)C(C)C; Morpholide = C1CN(*)CCO1; NMeA = CN[C@@H](C)C(=O)O; Ac5c = NC1(C(=O)O)CCCC1; Aze = O=C(O)[C@@H]1CCN1; NBuGly = CCCCNCC(=O)O; NPrGly = CCCNCC(=O)O; NEtG = CCNCC(=O)O; Sar = CNCC(=O)O

Key:
[1] = biological target: GDP-bound HRAS wild-type protein (Homo sapiens, UniProt P01112); test: Binding to HRAS by surface plasmon resonance (SPR), Single Cycle Kinetics; conditions: SPR, GDP-bound HRAS wild-type protein vs GDP-bound KRAS wild-type protein
[2] = biological target: GDP-bound NRAS wild-type protein (Homo sapiens, UniProt P01111); test: Binding to NRAS by surface plasmon resonance (SPR), Single Cycle Kinetics; conditions: SPR, GDP-bound NRAS wild-type protein vs GDP-bound KRAS wild-type protein
[3] = biological target: GDP-bound KRAS wild-type protein (Homo sapiens, UniProt P01116); test: Binding to KRAS by surface plasmon resonance (SPR), Single Cycle Kinetics; conditions: SPR Single Cycle Kinetics, GDP-bound KRAS wild-type protein, 1:1 binding model; read-out: KRAS KD
Sequence of GDP-bound KRAS wild-type protein (P01116 whole entry): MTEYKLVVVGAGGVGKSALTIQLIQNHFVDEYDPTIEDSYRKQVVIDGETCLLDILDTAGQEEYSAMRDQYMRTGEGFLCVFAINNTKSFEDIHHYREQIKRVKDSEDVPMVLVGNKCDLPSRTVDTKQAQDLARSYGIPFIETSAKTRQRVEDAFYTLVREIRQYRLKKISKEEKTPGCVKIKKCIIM

Sequence of GDP-bound HRAS wild-type protein (P01112 whole entry): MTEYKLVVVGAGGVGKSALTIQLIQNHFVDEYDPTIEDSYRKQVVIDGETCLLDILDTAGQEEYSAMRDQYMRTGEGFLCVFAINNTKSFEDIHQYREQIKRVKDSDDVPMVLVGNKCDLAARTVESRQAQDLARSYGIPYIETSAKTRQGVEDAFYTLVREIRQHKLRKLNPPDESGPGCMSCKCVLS
Sequence of GDP-bound NRAS wild-type protein (P01111 whole entry): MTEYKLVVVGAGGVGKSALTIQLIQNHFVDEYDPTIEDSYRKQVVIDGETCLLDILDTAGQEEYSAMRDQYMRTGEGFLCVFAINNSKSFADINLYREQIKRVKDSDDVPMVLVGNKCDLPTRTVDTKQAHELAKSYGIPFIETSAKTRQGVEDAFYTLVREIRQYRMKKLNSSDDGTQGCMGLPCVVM

Compound | HRAS/KRAS (ratio of KD value for HRAS to KD value for KRAS) [1] | NRAS/KRAS (ratio of KD value for NRAS to KD value for KRAS) [2] | Kd [3]
CC[C@H](C)[C@@H]1NC(=O)[C@H](C)N(C)C(=O)C[C@@H](C(=O)N2CCOCC2)N(C)C(=O)[C@H](C2CCCC2)N(C)C(=O)C2(CCCC2)NC(=O)[C@@H]2CCCN2C(=O)[C@H](CCc2ccc(C(F)(F)F)c(Cl)c2)NC(=O)CN(C)C(=O)[C@H](Cc2ccc(C)cc2)N(CC)C(=O)[C@@H]2CCN2C(=O)[C@H](C)N(C)C1=O [PP0007] ([NMeA]I[NMeA][Aze][NEtPhe(4-Me)][Sar][hPhe(3-Cl-4-CF3)]P[Ac5c][NMeGly(cPent)][NMeD]-Morpholide; lactam N-11) | C (A compound having a KD ratio of 0.1 or more and less than 3 is denoted as C) | C (A compound having a KD ratio of 0.1 or more and less than 3 is denoted as C) | 0.074 nM
CC[C@H](C)[C@@H]1NC(=O)[C@H](CC(C)C)N(C)C(=O)C[C@@H](C(=O)N2CCOCC2)N(C)C(=O)[C@H](C2CCCC2)N(C)C(=O)C2(CCCC2)NC(=O)[C@@H]2CCCN2C(=O)[C@H](CCc2ccc(C(F)(F)F)c(Cl)c2)NC(=O)CN(C)C(=O)[C@H](Cc2ccccc2)N(C)C(=O)[C@@H]2CCN2C(=O)[C@H](C)N(C)C1=O [PP0011] ([NMeL]I[NMeA][Aze][NMeF][Sar][hPhe(3-Cl-4-CF3)]P[Ac5c][NMeGly(cPent)][NMeD]-Morpholide; lactam N-11) | C (A compound having a KD ratio of 0.1 or more and less than 3 is denoted as C) | C (A compound having a KD ratio of 0.1 or more and less than 3 is denoted as C) | 0.3 nM
CC[C@H](C)[C@@H]1NC(=O)[C@H](CC(C)C)N(C)C(=O)C[C@@H](C(=O)N2CCOCC2)N(C)C(=O)[C@H](C2CCCC2)N(C)C(=O)C2(CCCC2)NC(=O)[C@@H]2C[C@@H](O)CN2C(=O)[C@H](CCc2ccc(C(F)(F)F)c(Cl)c2)NC(=O)CN(C)C(=O)[C@H](Cc2ccc(C)cc2)N(CC)C(=O)[C@@H]2CCN2C(=O)[C@H](C)N(C)C1=O [PP0013] ([NMeL]I[NMeA][Aze][NEtPhe(4-Me)][Sar][hPhe(3-Cl-4-CF3)][Hyp][Ac5c][NMeGly(cPent)][NMeD]-Morpholide; lactam N-11) | C (A compound having a KD ratio of 0.1 or more and less than 3 is denoted as C) | C (A compound having a KD ratio of 0.1 or more and less than 3 is denoted as C) | 0.073 nM
CCO[C@@H]1C[C@H]2C(=O)NC3(CCCC3)C(=O)N(C)[C@@H](C3CCCC3)C(=O)N(C)[C@H](C(=O)N3CCOCC3)CC(=O)N(C)[C@@H](CC(C)C)C(=O)N[C@@H]([C@@H](C)CC)C(=O)N(C)[C@@H](C)C(=O)N3CC[C@H]3C(=O)N(CC)[C@@H](Cc3ccc(C)cc3)C(=O)N(C)CC(=O)N[C@@H](CCc3ccc(C(F)(F)F)c(Cl)c3)C(=O)N2C1 [PP0014] ([NMeL]I[NMeA][Aze][NEtPhe(4-Me)][Sar][hPhe(3-Cl-4-CF3)][Hyp](Et)[Ac5c][NMeGly(cPent)][NMeD]-Morpholide; lactam N-11) | C (A compound having a KD ratio of 0.1 or more and less than 3 is denoted as C) | C (A compound having a KD ratio of 0.1 or more and less than 3 is denoted as C) | 0.09 nM
CC[C@H](C)[C@@H]1NC(=O)[C@H](CC(C)C)N(C)C(=O)C[C@@H](C(=O)N2CCOCC2)N(C)C(=O)[C@H](C(C)C)N(C)C(=O)C2(CCCC2)NC(=O)[C@@H]2CCCN2C(=O)[C@H](CCc2ccc(C(F)(F)F)c(Cl)c2)NC(=O)CN(C)C(=O)[C@H](Cc2ccc(C)cc2)N(CC)C(=O)[C@@H]2CCN2C(=O)[C@H](C)N(C)C1=O [PP0015] ([NMeL]I[NMeA][Aze][NEtPhe(4-Me)][Sar][hPhe(3-Cl-4-CF3)]P[Ac5c][NMeV][NMeD]-Morpholide; lactam N-11) | C (A compound having a KD ratio of 0.1 or more and less than 3 is denoted as C) | C (A compound having a KD ratio of 0.1 or more and less than 3 is denoted as C) | 2.7 nM
CC[C@H](C)[C@@H]1NC(=O)[C@H](CC(C)C)N(C)C(=O)C[C@@H](C(=O)N2CCOCC2)N(C)C(=O)[C@H](CC(C)C)N(C)C(=O)C2(CCCC2)NC(=O)[C@@H]2CCCN2C(=O)[C@H](CCc2ccc(C(F)(F)F)c(Cl)c2)NC(=O)CN(C)C(=O)[C@H](Cc2ccc(C)cc2)N(CC)C(=O)[C@@H]2CCN2C(=O)[C@H](C)N(C)C1=O [PP0016] ([NMeL]I[NMeA][Aze][NEtPhe(4-Me)][Sar][hPhe(3-Cl-4-CF3)]P[Ac5c][NMeL][NMeD]-Morpholide; lactam N-11) | C (A compound having a KD ratio of 0.1 or more and less than 3 is denoted as C) | C (A compound having a KD ratio of 0.1 or more and less than 3 is denoted as C) | 1.6 nM
CC[C@H](C)[C@@H]1NC(=O)[C@H](CC(C)C)N(C)C(=O)C[C@@H](C(=O)N2CCOCC2)N(C)C(=O)[C@H](C2CCCC2)N(C)C(=O)C2(CCCC2)NC(=O)[C@@H]2CCCN2C(=O)[C@H](CCc2ccc(C(F)(F)F)c(Cl)c2)NC(=O)CN(C)C(=O)[C@H](Cc2ccc(C)cc2)N(C)C(=O)CN(C)C(=O)CN(C)C1=O [PP0018] ([NMeL]I[Sar][Sar][NMePhe(4-Me)][Sar][hPhe(3-Cl-4-CF3)]P[Ac5c][NMeGly(cPent)][NMeD]-Morpholide; lactam N-11) | C (A compound having a KD ratio of 0.1 or more and less than 3 is denoted as C) | C (A compound having a KD ratio of 0.1 or more and less than 3 is denoted as C) | 0.077 nM
CC[C@H](C)[C@@H]1NC(=O)[C@H](CC(C)C)N(C)C(=O)C[C@@H](C(=O)N2CCOCC2)N(C)C(=O)[C@H](C2CCCC2)N(C)C(=O)C2(CCCC2)NC(=O)[C@@H]2CCCN2C(=O)[C@H](CCc2ccc(C(F)(F)F)c(Cl)c2)NC(=O)CN(C)C(=O)[C@H](Cc2ccc(C)cc2)N(C)C(=O)CN(CC)C(=O)CN(C)C1=O [PP0019] ([NMeL]I[Sar][NEtG][NMePhe(4-Me)][Sar][hPhe(3-Cl-4-CF3)]P[Ac5c][NMeGly(cPent)][NMeD]-Morpholide; lactam N-11) | C (A compound having a KD ratio of 0.1 or more and less than 3 is denoted as C) | C (A compound having a KD ratio of 0.1 or more and less than 3 is denoted as C) | 0.34 nM
CCCN1CC(=O)N(C)[C@@H](Cc2ccc(C)cc2)C(=O)N(C)CC(=O)N[C@@H](CCc2ccc(C(F)(F)F)c(Cl)c2)C(=O)N2CCC[C@H]2C(=O)NC2(CCCC2)C(=O)N(C)[C@@H](C2CCCC2)C(=O)N(C)[C@H](C(=O)N2CCOCC2)CC(=O)N(C)[C@@H](CC(C)C)C(=O)N[C@@H]([C@@H](C)CC)C(=O)N(C)CC1=O [PP0020] ([NMeL]I[Sar][NPrGly][NMePhe(4-Me)][Sar][hPhe(3-Cl-4-CF3)]P[Ac5c][NMeGly(cPent)][NMeD]-Morpholide; lactam N-11) | C (A compound having a KD ratio of 0.1 or more and less than 3 is denoted as C) | C (A compound having a KD ratio of 0.1 or more and less than 3 is denoted as C) | 0.77 nM
CCCCN1CC(=O)N(C)[C@@H](Cc2ccc(C)cc2)C(=O)N(C)CC(=O)N[C@@H](CCc2ccc(C(F)(F)F)c(Cl)c2)C(=O)N2CCC[C@H]2C(=O)NC2(CCCC2)C(=O)N(C)[C@@H](C2CCCC2)C(=O)N(C)[C@H](C(=O)N2CCOCC2)CC(=O)N(C)[C@@H](CC(C)C)C(=O)N[C@@H]([C@@H](C)CC)C(=O)N(C)CC1=O [PP0021] ([NMeL]I[Sar][NBuGly][NMePhe(4-Me)][Sar][hPhe(3-Cl-4-CF3)]P[Ac5c][NMeGly(cPent)][NMeD]-Morpholide; lactam N-11) | C (A compound having a KD ratio of 0.1 or more and less than 3 is denoted as C) | C (A compound having a KD ratio of 0.1 or more and less than 3 is denoted as C) | 0.65 nM
CC[C@H](C)[C@@H]1NC(=O)[C@H](CC(C)C)N(C)C(=O)C[C@@H](C(=O)N2CCOCC2)N(C)C(=O)[C@H](C2CCCC2)N(C)C(=O)C2(CCCC2)NC(=O)[C@@H]2CCCN2C(=O)[C@H](CCc2ccc(C(F)(F)F)c(Cl)c2)NC(=O)CN(C)C(=O)[C@H](Cc2ccc(C)cc2)N(CC)C(=O)CN(C)C(=O)CN(C)C1=O [PP0022] ([NMeL]I[Sar][Sar][NEtPhe(4-Me)][Sar][hPhe(3-Cl-4-CF3)]P[Ac5c][NMeGly(cPent)][NMeD]-Morpholide; lactam N-11) | C (A compound having a KD ratio of 0.1 or more and less than 3 is denoted as C) | B (a compound having 3 or more and less than 10 is denoted as B) | 0.18 nM
CC[C@H](C)[C@@H]1NC(=O)[C@H](CC(C)C)N(C)C(=O)C[C@@H](C(=O)N2CCOCC2)N(C)C(=O)[C@H](C2CCCC2)N(C)C(=O)C2(CCCC2)NC(=O)[C@@H]2CCCN2C(=O)[C@H](CCc2ccc(C(F)(F)F)c(Cl)c2)NC(=O)CN(C)C(=O)[C@H](Cc2ccc(C(F)(F)F)cc2)N(CC)C(=O)CN(C)C(=O)CN(C)C1=O [PP0023] ([NMeL]I[Sar][Sar][NEtPhe(4-CF3)][Sar][hPhe(3-Cl-4-CF3)]P[Ac5c][NMeGly(cPent)][NMeD]-Morpholide; lactam N-11) | C (A compound having a KD ratio of 0.1 or more and less than 3 is denoted as C) | B (a compound having 3 or more and less than 10 is denoted as B) | 0.14 nM
